Assays:
[1] = target: T1, human XIAP_BIR3 domain purified protein (Homo sapiens, UniProt P98170); assay: XIAP binding inhibitory activity (HTRF, b-Smac ligand); conditions: for inhibition at 3 µM: concentration of the test compound 3 μM, first symbol of cell, read-out: XIAP binding inhibition rate; for IC50: second symbol of cell, read-out: XIAP binding inhibition IC50 value
T1 construct: purchased R & D
Protocol: Human XIAP binding inhibitory activity was measured by the Homogeneous Time Resolved Fluorescence (HTRF) method with using commercially available human XIAP_BIR3 domain purified protein (R & D) and as a ligand a Smac N-terminal peptide (AVPIAQK (SEQ ID NO: 1)) (hereinafter referred to as “b-Smac”; Peptide Research Laboratories, Inc.) biotinylated at the C-terminus according to a conventional method.
The HTRF method will be described in detail below.
The test compound diluted with a reaction buffer (25 mM HEPES Buffer containing 100 mM NaCl, 0.1% BSA, and 0.1% triton X-100, pH 7.5) was added to a 384-well white shallow bottom plate (Greiner 784076) at 1 μL/well and flash centrifuged for 30 seconds. Subsequently, human XIAP_BIR3 domain purified protein was diluted with the reaction buffer to obtain a 90 nM sample diluent, and the resultant sample diluent was added to the above-mentioned white superficial plate at 4.5 μL/well and flash centrifuged for 30 seconds. Subsequently, b-Smac diluted to 90 nM with the reaction buffer was added to the above-mentioned white superficial plat at 4.5 μL/well and flash centrifuged for 30 seconds. A mixed solution of Anti-6 HIS-Cryptate (Eu^3+ Cryptate-conjugated mouse monoclonal antibody anti-6 Histidine; cisbio) and Streptavidin-XL^eat (Highgrade XL665-conjugated streptavidin; cisbio) both diluted 100-fold with HTRF detection buffer (cisbio) at a volume ratio of 1:1 was added to the above white superficial plate at 10 μL/well. After flash centrifuging the white shallow bottom plate for 30 seconds, the white shallow bottom plate was left at room temperature for 4 hours or more in the dark. The white superficial plate after being left was subjected to fluorescence intensity measurement (excitation wavelength: 320 nm, fluorescence wavelength: 665 nm and 615 nm) by EnVision (Perkin Elmer). The binding inhibition rate (%) was calculated based on the HTRF ratio in the presence of the test compound to the HTRF ratio in the absence of the test compound (fluorescence intensity at 665 nm/fluorescence intensity at 615 nm).
The XIAP binding inhibition rate (%) of test compounds was evaluated.

IRAK-M = target: T2, IRAK-M (Homo sapiens, UniProt Q9Y616); assay: IRAK-M binding inhibitory activity (KINOMEscan active site-dependent competitive assay); design: purchased Eurofins Discover X; conditions: for remaining binding at 1 µM: concentration of the test compound 1 μM, first symbol of cell, read-out: IRAK-M binding inhibition activity % Ctrl; for IC50: second symbol of cell, read-out: IRAK-M binding inhibition IC50 value
T2 sequence (Q9Y616 1-596): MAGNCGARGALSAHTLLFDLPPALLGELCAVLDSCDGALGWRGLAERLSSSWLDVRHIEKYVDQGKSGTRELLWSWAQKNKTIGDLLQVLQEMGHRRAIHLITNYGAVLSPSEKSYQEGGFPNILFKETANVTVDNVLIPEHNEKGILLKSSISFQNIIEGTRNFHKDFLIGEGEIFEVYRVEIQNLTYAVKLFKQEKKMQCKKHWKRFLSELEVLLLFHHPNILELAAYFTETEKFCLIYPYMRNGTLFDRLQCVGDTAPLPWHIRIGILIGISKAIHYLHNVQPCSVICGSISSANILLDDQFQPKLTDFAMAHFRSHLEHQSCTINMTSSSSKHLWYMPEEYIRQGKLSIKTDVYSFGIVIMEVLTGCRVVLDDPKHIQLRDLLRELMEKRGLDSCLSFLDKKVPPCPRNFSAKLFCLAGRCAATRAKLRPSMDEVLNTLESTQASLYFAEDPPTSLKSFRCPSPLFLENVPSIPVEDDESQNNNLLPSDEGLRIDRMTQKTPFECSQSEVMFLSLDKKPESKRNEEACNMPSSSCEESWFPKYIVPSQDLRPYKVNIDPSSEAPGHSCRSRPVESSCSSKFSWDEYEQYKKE
How it was run: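 Active site-dependent competition binding assay (KINOMEscan) against human IRAK-M. Result expressed as % Ctrl = (compound signal − positive control signal)/(DMSO signal − positive control signal) × 100, where DMSO = 100% Ctrl and control compound = 0% Ctrl.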

T1 sequence (P98170 252-356 limits assumed): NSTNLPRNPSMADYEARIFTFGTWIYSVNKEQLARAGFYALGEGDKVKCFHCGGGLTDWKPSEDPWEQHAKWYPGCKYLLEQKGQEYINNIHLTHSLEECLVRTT

Compound	inhibition at 3 µM [1] [%]	remaining binding at 1 µM (IRAK-M) [%]	IC50 (IRAK-M) [nM]	IC50 [1] [nM]
CN[C@@H](C)C(=O)N[C@H](C(=O)N1CCN(C(=O)c2c(OCCOCCOCCOCCOc3cc(CN4CCC(Oc5ccnc6ccsc56)CC4)on3)c3cc(F)c(F)cc3n2C)CC1)C1CCCCC1 [Example 23, (S)-N-((S)-1-cyclohexyl-2-(4-(5,6-difluoro-1-methyl-3-(2-(2-(2-(2-((5-((4-(thieno[3,2-b]pyridin-7-yloxy)piperidin-1-yl)methyl)isoxazol-3-yl)oxy)ethoxy)ethoxy)ethoxy)ethoxy)-1H-indole-2-carbonyl)piperazin-1-yl)-2-oxoethyl)-2-(methylamino)propanamide]	25 to 50	25 to 50	–	–
CN[C@@H](C)C(=O)N[C@H](C(=O)N1CCN(C(=O)c2cc3cc(F)c(F)cc3n2CC(=O)N2CCC[C@@H]2COc2cc(CN3CCC(Oc4ccnc5ccsc45)CC3)on2)CC1)C1CCCCC1 [Example 31, (S)-N-((S)-1-cyclohexyl-2-(4-(5,6-difluoro-1-(2-oxo-2-((R)-2-(((5-((4-(thieno[3,2-b]pyridin-7-yloxy)piperidin-1-yl)methyl)isoxazol-3-yl)oxy)methyl)pyrrolidin-1-yl)ethyl)-1H-indole-2-carbonyl)piperazin-1-yl)-2-oxoethyl)-2-(methylamino)propanamide]	25 to 50	25 to 50	–	–
CN[C@@H](C)C(=O)N[C@H](C(=O)N1CCN(C(=O)c2cc3cc(F)ccc3n2CC(=O)N2C[C@@H](O)C[C@H]2COc2cc(CN3CCC(Oc4ccnc5ccsc45)CC3)on2)[C@@H](C)C1)C1CCCCC1 [Example 42, (S)-N-((S)-1-cyclohexyl-2-((S)-4-(5-fluoro-1-(2-((2S,4S)-4-hydroxy-2-(((5-((4-(thieno[3,2-b]pyridin-7-yloxy)piperidin-1-yl)methyl)isoxazol-3-yl)oxy)methyl)pyrrolidin-1-yl)-2-oxoethyl)-1H-indole-2-carbonyl)-3-methylpiperazin-1-yl)-2-oxoethyl)-2-(methylamino)propanamide]	> 25	–	100 to 300	–
CN[C@@H](C)C(=O)N[C@H](C(=O)N1CCN(C(=O)c2cc3cc(F)c(F)cc3n2CC(=O)N2CCOC[C@@H]2COc2cc(CN3CCC(Oc4ccnc5ccsc45)CC3)on2)CC1)C1CCCCC1 [Example 45, (S)-N-((S)-1-cyclohexyl-2-(4-(5,6-difluoro-1-(2-oxo-2-((R)-3-(((5-((4-(thieno[3,2-b]pyridin-7-yloxy)piperidin-1-yl)methyl)isoxazol-3-yl)oxy)methyl)morpholino)ethyl)-1H-indole-2-carbonyl)piperazin-1-yl)-2-oxoethyl)-2-(methylamino)propanamide]	–	25 to 50	–	3000 to 30000
CN[C@@H](C)C(=O)N[C@H](C(=O)N1CCN(C(=O)c2cc3cc(F)ccc3n2CC(=O)N2CCOC[C@@H]2COc2cc(CN3CCC(Oc4ccnc5ccsc45)CC3)on2)[C@@H](C)C1)C1CCCCC1 [Example 46, (S)-N-((S)-1-cyclohexyl-2-((S)-4-(5-fluoro-1-(2-oxo-2-((R)-3-(((5-((4-(thieno[3,2-b]pyridin-7-yloxy)piperidin-1-yl)methyl)isoxazol-3-yl)oxy)methyl)morpholino)ethyl)-1H-indole-2-carbonyl)-3-methylpiperazin-1-yl)-2-oxoethyl)-2-(methylamino)propanamide]	> 25	–	100 to 300	–
CN[C@@H](C)C(=O)N[C@H](C(=O)N1CCN(C(=O)c2cc3cc(F)ccc3n2CC(=O)N2CCOC[C@H]2COc2cc(CN3CCC(Oc4ccnc5ccsc45)CC3)on2)[C@@H](C)C1)C1CCCCC1 [Example 47, (S)-N-((S)-1-cyclohexyl-2-((S)-4-(5-fluoro-1-(2-oxo-2-((S)-3-(((5-((4-(thieno[3,2-b]pyridin-7-yloxy)piperidin-1-yl)methyl)isoxazol-3-yl)oxy)methyl)morpholino)ethyl)-1H-indole-2-carbonyl)-3-methylpiperazin-1-yl)-2-oxoethyl)-2-(methylamino)propanamide]	> 25	–	1000 to 3000	–

Results, then the molecule that gave them:

inhibition at 3 µM [1] [%]	remaining binding at 1 µM (IRAK-M) [%]	IC50 (IRAK-M) [nM]	IC50 [1] [nM]	Compound
–	< 25	–	300 to 3000	CN[C@@H](C)C(=O)N[C@H](C(=O)N1CCN(C(=O)c2cc3c(OCCOCCOCCOc4cc(CN5CCC(Oc6ccnc7ccsc67)CC5)on4)c(F)c(F)cc3n2C)CC1)C1CCCCC1 [Example 52, (S)-N-((S)-1-cyclohexyl-2-(4-(5,6-difluoro-1-methyl-4-(2-(2-(2-((5-((4-(thieno[3,2-b]pyridin-7-yloxy)piperidin-1-yl)methyl)isoxazol-3-yl)oxy)ethoxy)ethoxy)ethoxy)-1H-indole-2-carbonyl)piperazin-1-yl)-2-oxoethyl)-2-(methylamino)propanamide]
–	< 25	–	300 to 3000	CN[C@@H](C)C(=O)N[C@H](C(=O)N1CCN(C(=O)c2ccc3c(c2)cc(C)n3CCOCCOCCOCCOc2cc(CN3CCC(Oc4ccnc5ccsc45)CC3)on2)CC1)C1CCCCC1 [Example 53, (S)-N-((S)-1-cyclohexyl-2-(4-(2-methyl-1-(2-(2-(2-(2-((5-((4-(thieno[3,2-b]pyridin-7-yloxy)piperidin-1-yl)methyl)isoxazol-3-yl)oxy)ethoxy)ethoxy)ethoxy)ethyl)-1H-indole-5-carbonyl)piperazin-1-yl)-2-oxoethyl)-2-(methylamino)propanamide]
–	25 to 50	–	< 300	CN[C@@H](C)C(=O)N[C@H](C(=O)N1CCN(C(=O)c2ccc3c(c2)cc(C)n3CCOCCOc2cc(CN3CCC(Oc4ccnc5ccsc45)CC3)on2)CC1)C1CCCCC1 [Example 54, (S)-N-((S)-1-cyclohexyl-2-(4-(2-methyl-1-(2-(2-((5-((4-(thieno[3,2-b]pyridin-7-yloxy)piperidin-1-yl)methyl)isoxazol-3-yl)oxy)ethoxy)ethyl)-1H-indole-5-carbonyl)piperazin-1-yl)-2-oxoethyl)-2-(methylamino)propanamide]
–	25 to 50	–	300 to 3000	CN[C@@H](C)C(=O)N[C@H](C(=O)N1CCN(C(=O)c2ccc3c(c2)cc(C)n3CCOCCOCCOc2cc(CN3CCC(Oc4ccnc5ccsc45)CC3)on2)CC1)C1CCCCC1 [Example 55, (S)-N-((S)-1-cyclohexyl-2-(4-(2-methyl-1-(2-(2-(2-((5-((4-(thieno[3,2-b]pyridin-7-yloxy)piperidin-1-yl)methyl)isoxazol-3-yl)oxy)ethoxy)ethoxy)ethyl)-1H-indole-5-carbonyl)piperazin-1-yl)-2-oxoethyl)-2-(methylamino)propanamide]
–	50 to 75	–	300 to 3000	CN[C@@H](C)C(=O)N[C@H](C(=O)N1CCN(C(=O)c2ccc3c(c2)cc(C)n3CCOCCOCCOc2cc(CN3CCC(Oc4ccnc5ccsc45)CC3)on2)C[C@H]1C)C1CCCCC1 [Example 56, (S)-N-((S)-1-cyclohexyl-2-((R)-2-methyl-4-(2-methyl-1-(2-(2-(2-((5-((4-(thieno[3,2-b]pyridin-7-yloxy)piperidin-1-yl)methyl)isoxazol-3-yl)oxy)ethoxy)ethoxy)ethyl)-1H-indole-5-carbonyl)piperazin-1-yl)-2-oxoethyl)-2-(methylamino)propanamide]
–	25 to 50	–	300 to 3000	CN[C@@H](C)C(=O)N[C@H](C(=O)N1CCN(C(=O)c2ccc3c(c2)c(F)c(C)n3CCOCCOCCOc2cc(CN3CCC(Oc4ccnc5ccsc45)CC3)on2)CC1)C1CCCCC1 [Example 57, (S)-N-((S)-1-cyclohexyl-2-(4-(3-fluoro-2-methyl-1-(2-(2-(2-((5-((4-(thieno[3,2-b]pyridin-7-yloxy)piperidin-1-yl)methyl)isoxazol-3-yl)oxy)ethoxy)ethoxy)ethyl)-1H-indole-5-carbonyl)piperazin-1-yl)-2-oxoethyl)-2-(methylamino)propanamide]
